{"source": "ChEMBL document CHEMBL1141723", "about": "“Specific targeting of metzincin family members with small-molecule inhibitors: progress toward a multifarious challenge” (Bioorg Med Chem, 2008)", "key": {"[1]": {"biological_target": "Disintegrin and metalloproteinase domain-containing protein 17 (Sus scrofa, UniProt O77636)", "sequence (O77636 whole entry, the tested form may be a part)": "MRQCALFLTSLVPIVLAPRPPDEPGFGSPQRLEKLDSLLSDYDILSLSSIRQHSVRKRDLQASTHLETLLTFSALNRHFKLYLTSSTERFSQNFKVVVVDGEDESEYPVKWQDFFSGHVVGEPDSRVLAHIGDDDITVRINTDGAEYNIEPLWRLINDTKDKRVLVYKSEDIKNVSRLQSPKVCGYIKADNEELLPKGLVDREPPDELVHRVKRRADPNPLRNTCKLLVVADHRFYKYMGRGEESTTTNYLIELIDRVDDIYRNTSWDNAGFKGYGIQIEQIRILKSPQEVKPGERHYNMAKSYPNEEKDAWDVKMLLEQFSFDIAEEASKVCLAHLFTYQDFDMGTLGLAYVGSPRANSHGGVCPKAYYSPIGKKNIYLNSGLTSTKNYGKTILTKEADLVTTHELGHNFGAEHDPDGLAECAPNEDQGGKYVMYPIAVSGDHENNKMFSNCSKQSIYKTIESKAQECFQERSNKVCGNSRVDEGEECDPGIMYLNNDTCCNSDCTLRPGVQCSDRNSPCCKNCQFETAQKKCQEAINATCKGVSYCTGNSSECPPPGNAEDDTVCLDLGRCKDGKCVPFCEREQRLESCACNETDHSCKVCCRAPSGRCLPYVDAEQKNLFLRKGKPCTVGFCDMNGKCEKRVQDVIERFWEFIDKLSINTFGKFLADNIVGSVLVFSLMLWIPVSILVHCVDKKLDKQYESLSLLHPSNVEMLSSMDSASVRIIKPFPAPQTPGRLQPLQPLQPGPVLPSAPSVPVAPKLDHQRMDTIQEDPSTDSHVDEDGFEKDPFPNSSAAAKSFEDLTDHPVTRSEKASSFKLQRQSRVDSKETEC", "assay": "Inhibition of pig TACE"}, "Matrilysin": {"biological_target": "T1, Matrilysin (Homo sapiens, UniProt P09237)", "T1 sequence (P09237 whole entry)": "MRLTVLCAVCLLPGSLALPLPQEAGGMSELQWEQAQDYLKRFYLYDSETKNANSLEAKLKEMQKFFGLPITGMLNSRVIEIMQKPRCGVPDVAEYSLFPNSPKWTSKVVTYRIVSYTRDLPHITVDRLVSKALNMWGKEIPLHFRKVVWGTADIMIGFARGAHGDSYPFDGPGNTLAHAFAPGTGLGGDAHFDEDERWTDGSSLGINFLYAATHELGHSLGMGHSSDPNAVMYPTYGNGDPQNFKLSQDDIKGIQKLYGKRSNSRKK"}, "[2]": {"assay": "Selectivity for pig TACE over MMP2"}, "[3]": {"assay": "Selectivity for pig TACE over MMP1"}, "[4]": {"assay": "Selectivity for pig TACE over MMP9"}, "[5]": {"assay": "Selectivity for pig TACE over MMP8"}, "[6]": {"assay": "Selectivity for pig TACE over MMP3"}, "[7]": {"assay": "Selectivity for pig TACE over MMP7"}, "[8]": {"assay": "Inhibition of bovine aggrecanase", "parameters": "species or system Bos taurus"}, "[9]": {"assay": "Selectivity for TACE over ADAM10"}, "[10]": {"assay": "Selectivity for TACE over BMP1"}, "[11]": {"assay": "Selectivity for TACE over MMP7"}, "[12]": {"assay": "Selectivity for TACE over MMP14"}, "[13]": {"assay": "Selectivity for TACE over MMP1"}, "[14]": {"assay": "Selectivity for TACE over MMP2"}, "[15]": {"assay": "Selectivity for TACE over MMP3"}, "[16]": {"biological_target": "72 kDa type IV collagenase (Homo sapiens, UniProt P08253)", "sequence (P08253 whole entry)": "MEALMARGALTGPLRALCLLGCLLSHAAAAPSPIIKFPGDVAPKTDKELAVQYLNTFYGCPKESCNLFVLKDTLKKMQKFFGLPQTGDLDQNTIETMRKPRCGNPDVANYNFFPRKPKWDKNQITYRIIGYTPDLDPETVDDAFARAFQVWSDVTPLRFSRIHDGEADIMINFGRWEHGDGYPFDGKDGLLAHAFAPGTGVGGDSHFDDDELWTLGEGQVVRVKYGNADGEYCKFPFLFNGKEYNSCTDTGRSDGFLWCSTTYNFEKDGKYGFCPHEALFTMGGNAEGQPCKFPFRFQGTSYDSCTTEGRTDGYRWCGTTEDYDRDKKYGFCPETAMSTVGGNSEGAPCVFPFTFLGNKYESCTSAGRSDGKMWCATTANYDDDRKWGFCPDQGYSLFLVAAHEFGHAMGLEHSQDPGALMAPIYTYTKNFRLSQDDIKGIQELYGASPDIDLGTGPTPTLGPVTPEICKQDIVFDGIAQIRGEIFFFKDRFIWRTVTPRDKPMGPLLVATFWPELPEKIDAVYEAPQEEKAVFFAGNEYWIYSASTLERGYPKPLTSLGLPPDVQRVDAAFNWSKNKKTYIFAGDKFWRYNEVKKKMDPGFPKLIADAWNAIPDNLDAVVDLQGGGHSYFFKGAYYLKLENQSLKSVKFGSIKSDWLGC"}, "Collagenase 3 [17]": {"biological_target": "T2, Collagenase 3 (Homo sapiens, UniProt P45452)", "assay": "Inhibition of MMP13"}, "[18]": {"biological_target": "Matrix metalloproteinase-14 (Homo sapiens, UniProt P50281)", "assay": "Inhibition of MMP14"}, "Neutrophil collagenase": {"biological_target": "Neutrophil collagenase (Homo sapiens, UniProt P22894)", "sequence (P22894 whole entry)": "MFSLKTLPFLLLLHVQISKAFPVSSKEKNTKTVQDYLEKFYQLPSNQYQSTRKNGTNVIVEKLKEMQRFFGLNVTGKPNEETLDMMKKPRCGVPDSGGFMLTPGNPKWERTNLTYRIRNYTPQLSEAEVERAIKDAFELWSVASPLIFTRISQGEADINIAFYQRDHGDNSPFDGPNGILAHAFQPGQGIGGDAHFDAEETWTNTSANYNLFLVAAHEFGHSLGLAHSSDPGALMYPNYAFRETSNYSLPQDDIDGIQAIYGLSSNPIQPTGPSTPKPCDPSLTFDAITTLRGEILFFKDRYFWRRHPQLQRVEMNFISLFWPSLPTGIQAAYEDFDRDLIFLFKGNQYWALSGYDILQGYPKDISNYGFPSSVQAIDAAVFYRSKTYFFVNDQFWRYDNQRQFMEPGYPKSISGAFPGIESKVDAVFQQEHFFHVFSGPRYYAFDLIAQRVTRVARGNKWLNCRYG", "assay": "Inhibition of MMP8"}, "Stromelysin-3": {"biological_target": "Stromelysin-3 (Homo sapiens, UniProt P24347)", "sequence (P24347 whole entry)": "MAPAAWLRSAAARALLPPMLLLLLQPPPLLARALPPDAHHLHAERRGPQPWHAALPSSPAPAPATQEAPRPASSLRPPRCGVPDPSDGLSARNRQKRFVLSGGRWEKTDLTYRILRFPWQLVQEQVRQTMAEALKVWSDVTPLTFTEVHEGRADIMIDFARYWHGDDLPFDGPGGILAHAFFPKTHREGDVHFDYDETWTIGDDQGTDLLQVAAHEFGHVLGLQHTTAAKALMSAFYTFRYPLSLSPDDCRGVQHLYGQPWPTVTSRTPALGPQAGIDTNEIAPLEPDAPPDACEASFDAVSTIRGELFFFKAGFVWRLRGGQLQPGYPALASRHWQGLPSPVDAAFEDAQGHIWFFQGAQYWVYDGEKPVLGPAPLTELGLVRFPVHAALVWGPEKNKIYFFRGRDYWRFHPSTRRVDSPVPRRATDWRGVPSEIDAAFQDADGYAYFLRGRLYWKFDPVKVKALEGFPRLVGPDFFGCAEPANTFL", "assay": "Inhibition of MMP11"}, "[19]": {"biological_target": "T3, Matrix metalloproteinase-9 (Homo sapiens, UniProt P14780)", "T3 sequence (P14780 whole entry)": "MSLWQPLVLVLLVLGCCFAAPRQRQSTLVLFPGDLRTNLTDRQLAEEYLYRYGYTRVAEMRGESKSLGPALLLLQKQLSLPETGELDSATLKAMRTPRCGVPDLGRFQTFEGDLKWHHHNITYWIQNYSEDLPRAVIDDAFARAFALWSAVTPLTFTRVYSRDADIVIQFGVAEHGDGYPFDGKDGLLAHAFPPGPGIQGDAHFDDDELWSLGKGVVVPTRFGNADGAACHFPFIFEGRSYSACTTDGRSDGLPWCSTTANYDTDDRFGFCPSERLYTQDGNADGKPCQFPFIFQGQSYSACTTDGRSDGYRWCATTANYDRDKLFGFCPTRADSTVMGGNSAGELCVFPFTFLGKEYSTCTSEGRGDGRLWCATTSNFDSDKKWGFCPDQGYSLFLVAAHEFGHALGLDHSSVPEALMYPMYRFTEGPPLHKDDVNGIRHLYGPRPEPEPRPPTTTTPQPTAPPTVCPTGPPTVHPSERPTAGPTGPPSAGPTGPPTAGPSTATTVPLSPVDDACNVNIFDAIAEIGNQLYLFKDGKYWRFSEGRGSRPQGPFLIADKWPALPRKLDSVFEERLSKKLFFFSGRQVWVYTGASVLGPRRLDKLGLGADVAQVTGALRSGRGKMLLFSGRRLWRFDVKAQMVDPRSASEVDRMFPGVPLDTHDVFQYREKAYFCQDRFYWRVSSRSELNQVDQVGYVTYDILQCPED", "assay": "Inhibition of MMP9"}, "Stromelysin-1": {"biological_target": "Stromelysin-1 (Homo sapiens, UniProt P08254)", "sequence (P08254 whole entry)": "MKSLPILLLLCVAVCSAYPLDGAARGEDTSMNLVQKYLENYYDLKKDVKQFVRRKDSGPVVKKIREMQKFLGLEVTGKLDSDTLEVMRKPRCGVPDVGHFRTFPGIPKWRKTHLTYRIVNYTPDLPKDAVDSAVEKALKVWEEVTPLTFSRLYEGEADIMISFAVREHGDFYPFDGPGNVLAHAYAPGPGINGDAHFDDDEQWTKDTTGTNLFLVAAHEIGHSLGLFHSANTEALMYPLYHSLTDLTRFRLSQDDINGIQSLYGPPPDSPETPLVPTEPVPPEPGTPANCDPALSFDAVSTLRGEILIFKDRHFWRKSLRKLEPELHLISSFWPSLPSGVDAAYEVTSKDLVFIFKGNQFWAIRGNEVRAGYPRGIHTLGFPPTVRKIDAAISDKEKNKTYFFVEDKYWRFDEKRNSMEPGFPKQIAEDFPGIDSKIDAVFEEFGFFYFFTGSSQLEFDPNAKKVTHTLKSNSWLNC"}, "Interstitial collagenase": {"biological_target": "T4, Interstitial collagenase (Homo sapiens, UniProt P03956)", "T4 sequence (P03956 whole entry)": "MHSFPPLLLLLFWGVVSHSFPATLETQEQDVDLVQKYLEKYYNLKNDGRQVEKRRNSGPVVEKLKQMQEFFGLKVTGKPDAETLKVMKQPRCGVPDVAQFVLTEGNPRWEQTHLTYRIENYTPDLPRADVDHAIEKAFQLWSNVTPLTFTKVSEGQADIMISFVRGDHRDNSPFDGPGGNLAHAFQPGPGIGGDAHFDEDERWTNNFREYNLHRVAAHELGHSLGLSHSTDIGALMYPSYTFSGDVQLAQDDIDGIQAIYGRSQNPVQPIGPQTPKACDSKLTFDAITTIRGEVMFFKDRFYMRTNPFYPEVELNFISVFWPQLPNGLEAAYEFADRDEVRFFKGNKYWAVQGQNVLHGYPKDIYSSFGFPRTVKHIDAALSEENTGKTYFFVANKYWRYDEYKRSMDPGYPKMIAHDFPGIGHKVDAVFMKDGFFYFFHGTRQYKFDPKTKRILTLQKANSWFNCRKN"}, "[20]": {"biological_target": "A disintegrin and metalloproteinase with thrombospondin motifs 5 (Homo sapiens, UniProt Q9UNA0)", "assay": "Inhibition of ADAMTS5"}, "[21]": {"biological_target": "T5, Interstitial collagenase (Homo sapiens) (UniProt P03956)", "T5 sequence (whole entry)": "T4 sequence (P03956 whole entry)", "assay": "Inhibition of MMP1 at 10 uM"}, "[22]": {"biological_target": "T3, Matrix metalloproteinase-9", "assay": "Inhibition of MMP9 at 10 uM"}, "Collagenase 3 [23]": {"biological_target": "T2, Collagenase 3", "assay": "Inhibition of MMP13 at 10 uM"}, "[24]": {"assay": "Inhibition of aggrecanase at 1 uM"}, "[25]": {"biological_target": "Macrophage metalloelastase (Homo sapiens, UniProt P39900)", "sequence (P39900 whole entry)": "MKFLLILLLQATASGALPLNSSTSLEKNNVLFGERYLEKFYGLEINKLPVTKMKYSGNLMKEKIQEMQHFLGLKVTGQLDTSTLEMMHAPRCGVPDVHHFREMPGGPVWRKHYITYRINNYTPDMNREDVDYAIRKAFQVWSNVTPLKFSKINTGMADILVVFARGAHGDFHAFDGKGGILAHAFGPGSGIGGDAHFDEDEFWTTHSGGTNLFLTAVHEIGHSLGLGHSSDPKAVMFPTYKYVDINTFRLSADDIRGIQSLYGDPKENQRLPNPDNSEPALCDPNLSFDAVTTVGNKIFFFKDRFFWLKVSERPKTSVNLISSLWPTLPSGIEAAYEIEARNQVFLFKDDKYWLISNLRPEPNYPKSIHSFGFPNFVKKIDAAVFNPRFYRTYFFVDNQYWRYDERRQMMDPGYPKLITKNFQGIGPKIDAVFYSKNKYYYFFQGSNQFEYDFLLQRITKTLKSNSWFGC", "assay": "Inhibition of MMP12"}, "[26]": {"biological_target": "Disintegrin and metalloproteinase domain-containing protein 17 (Homo sapiens, UniProt P78536)", "sequence (P78536 whole entry, the tested form may be a part)": "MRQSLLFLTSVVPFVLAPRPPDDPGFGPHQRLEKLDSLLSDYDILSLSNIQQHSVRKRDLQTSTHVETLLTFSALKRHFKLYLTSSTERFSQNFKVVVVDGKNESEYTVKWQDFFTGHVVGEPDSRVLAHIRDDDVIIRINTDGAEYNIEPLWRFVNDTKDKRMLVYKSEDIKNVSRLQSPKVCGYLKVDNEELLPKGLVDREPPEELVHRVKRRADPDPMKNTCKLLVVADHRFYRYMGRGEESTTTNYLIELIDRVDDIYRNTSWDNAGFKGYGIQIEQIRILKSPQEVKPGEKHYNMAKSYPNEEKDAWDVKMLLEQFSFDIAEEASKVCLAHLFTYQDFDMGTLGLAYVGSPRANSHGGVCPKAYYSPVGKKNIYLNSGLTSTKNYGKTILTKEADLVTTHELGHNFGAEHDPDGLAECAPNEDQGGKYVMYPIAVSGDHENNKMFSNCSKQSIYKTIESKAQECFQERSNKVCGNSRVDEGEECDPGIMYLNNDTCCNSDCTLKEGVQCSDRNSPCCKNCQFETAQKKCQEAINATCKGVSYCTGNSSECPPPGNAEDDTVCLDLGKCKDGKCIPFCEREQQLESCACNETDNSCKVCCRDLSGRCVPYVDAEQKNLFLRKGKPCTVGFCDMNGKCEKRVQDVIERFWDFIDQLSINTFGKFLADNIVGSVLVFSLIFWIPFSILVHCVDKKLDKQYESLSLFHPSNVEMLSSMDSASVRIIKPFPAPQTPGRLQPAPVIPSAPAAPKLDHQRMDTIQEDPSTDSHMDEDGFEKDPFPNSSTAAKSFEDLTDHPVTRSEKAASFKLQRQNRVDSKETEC", "assay": "Inhibition of TACE"}}}
{"smiles": "Cc1cc(COc2ccc(C(=O)Nc3ccccc3C(=O)c3c[nH]c(=O)[nH]3)cc2)c2ccccc2n1", "values": [{"measurement": "IC50", "setting": "[1]", "value": 0.009, "unit": "µM"}, {"measurement": "Ki", "setting": "Matrilysin", "value": "> 0.636", "unit": "µM"}]}
{"smiles": "Cc1cc(COc2ccc(C(=O)N[C@@H]3CCOC[C@@H]3C(=O)NO)cc2)c2ccccc2n1", "values": [{"measurement": "fold change (FC)", "setting": "[2]", "value": "> 30000"}, {"measurement": "fold change (FC)", "setting": "[3]", "value": "> 30000"}, {"measurement": "fold change (FC)", "setting": "[4]", "value": "> 14000"}, {"measurement": "fold change (FC)", "setting": "[5]", "value": 5500}, {"measurement": "fold change (FC)", "setting": "[6]", "value": 427}, {"measurement": "fold change (FC)", "setting": "[7]", "value": 200}]}
{"smiles": "O=C(NO)[C@@H](NCC1CC1)[C@@H](Cc1cccc(O)c1)C(=O)N[C@H]1c2ccccc2C[C@H]1O", "values": [{"measurement": "IC50", "setting": "[8]", "value": 0.012, "unit": "µM"}]}
{"smiles": "COC(=O)[C@@]1(Cc2ccc(OCc3cc(C)nc4ccccc34)cc2)C[C@@H]1C(=O)NO", "values": [{"measurement": "fold change (FC)", "setting": "[9]", "value": "> 7000"}, {"measurement": "fold change (FC)", "setting": "[10]", "value": 2200}, {"measurement": "fold change (FC)", "setting": "[11]", "value": 200}, {"measurement": "fold change (FC)", "setting": "[12]", "value": 1800}, {"measurement": "fold change (FC)", "setting": "[13]", "value": "> 12500"}, {"measurement": "fold change (FC)", "setting": "[14]", "value": 1100}, {"measurement": "fold change (FC)", "setting": "[15]", "value": 100}]}
{"smiles": "COc1ccccc1SC[C@H](CP(=O)(O)[C@H](Cc1ccccc1)NC(=O)OCc1ccccc1)C(=O)N[C@@H](Cc1c[nH]c2ccccc12)C(N)=O", "values": [{"measurement": "Ki", "setting": "[16]", "value": 0.03, "unit": "µM"}, {"measurement": "Ki", "setting": "Collagenase 3 [17]", "value": 0.0157, "unit": "µM"}, {"measurement": "Ki", "setting": "[18]", "value": 0.16, "unit": "µM"}, {"measurement": "Ki", "setting": "Neutrophil collagenase", "value": 0.0389, "unit": "µM"}, {"measurement": "Ki", "setting": "Stromelysin-3", "value": 0.00023, "unit": "µM"}, {"measurement": "Ki", "setting": "[19]", "value": 0.0356, "unit": "µM"}]}
{"smiles": "COC[C@@H](NC(=O)[C@@H](NC(=O)[C@H](CCCc1ccc(-c2ccccc2)c(C)c1)CC(=O)NO)C(C)(C)C)c1ccccc1", "values": [{"measurement": "IC50", "setting": "[16]", "value": 0.75, "unit": "µM"}, {"measurement": "IC50", "setting": "[18]", "value": 0.93, "unit": "µM"}, {"measurement": "IC50", "setting": "Stromelysin-1", "value": 0.0021, "unit": "µM"}, {"measurement": "IC50", "setting": "Interstitial collagenase", "value": 5.9, "unit": "µM"}, {"measurement": "IC50", "setting": "[19]", "value": 0.56, "unit": "µM"}]}
{"smiles": "O=C(N[C@@H]1CCOC[C@@H]1C(=O)NO)c1ccc(Cn2c(C(F)(F)F)nc3ccccc32)cc1", "values": [{"measurement": "Ki", "setting": "[20]", "value": 1.9, "unit": "µM"}]}
{"smiles": "CCCN1C(=O)[C@H](CS)NC(=O)[C@@H]1Cc1ccc([N+](=O)[O-])cc1", "values": [{"measurement": "IC50", "setting": "Stromelysin-1", "value": "> 20", "unit": "µM"}]}
{"smiles": "Cc1cc(COc2ccc(NC(=O)[C@H]3[C@H](C(=O)NO)CCCN3C)cc2)c2ccccc2n1", "values": [{"measurement": "Ki", "setting": "[16]", "value": "> 3.33", "unit": "µM"}, {"measurement": "Ki", "setting": "Interstitial collagenase", "value": "> 4.95", "unit": "µM"}, {"measurement": "Ki", "setting": "[19]", "value": "> 2.13", "unit": "µM"}, {"measurement": "IC50", "setting": "[1]", "value": 0.0062, "unit": "µM"}]}
{"smiles": "CC#CCOc1ccc(S(=O)(=O)C2(C(=O)NO)CCN(c3ccc(Cl)cc3)CC2)cc1", "values": [{"measurement": "inhibition", "setting": "[21]", "value": 52, "unit": "%"}, {"measurement": "inhibition", "setting": "[22]", "value": 52, "unit": "%"}, {"measurement": "inhibition", "setting": "Collagenase 3 [23]", "value": 56, "unit": "%"}]}
{"smiles": "Cc1cc(COc2ccc(C(=O)NCC3(N4CCN(S(C)(=O)=O)CC4)C(=O)NC(=O)NC3=O)cc2)c2ccccc2n1", "values": [{"measurement": "inhibition", "setting": "[24]", "value": 11, "unit": "%"}]}
{"smiles": "COc1ccc(C2=NNC3(S2)C(=O)N(Cc2ccccc2)c2ccc(C)cc23)cc1", "note": "(stereo not given)", "values": [{"measurement": "IC50", "setting": "Collagenase 3 [17]", "value": "> 100", "unit": "µM"}, {"measurement": "IC50", "setting": "[25]", "value": "> 22", "unit": "µM"}]}
{"smiles": "CC#CCOc1ccc(S(=O)(=O)CC2(C(=O)NO)CCN(c3c(C)noc3C)CC2)cc1", "values": [{"measurement": "IC50", "setting": "[16]", "value": 0.664, "unit": "µM"}, {"measurement": "IC50", "setting": "Collagenase 3 [17]", "value": 2.28, "unit": "µM"}, {"measurement": "IC50", "setting": "[18]", "value": 24, "unit": "µM"}, {"measurement": "IC50", "setting": "[26]", "value": 0.0022, "unit": "µM"}, {"measurement": "IC50", "setting": "Interstitial collagenase", "value": 37.3, "unit": "µM"}, {"measurement": "IC50", "setting": "[19]", "value": 5.5, "unit": "µM"}]}
